Activity calls are given as the source filed them.
Tests used:
Protein RecA = biological target: T1, Protein RecA (Mycobacterium tuberculosis, UniProt P9WHJ3); experiment: Fluorescence Cell-Free Homogeneous Dose Retest to Identify Inhibitors of RecA-Intein Splicing Activity. [Related pubchem assays (depositor defined):AID2097, AID2223, AID489010, AID492950]; format: functional
T1 sequence (P9WHJ3 whole entry): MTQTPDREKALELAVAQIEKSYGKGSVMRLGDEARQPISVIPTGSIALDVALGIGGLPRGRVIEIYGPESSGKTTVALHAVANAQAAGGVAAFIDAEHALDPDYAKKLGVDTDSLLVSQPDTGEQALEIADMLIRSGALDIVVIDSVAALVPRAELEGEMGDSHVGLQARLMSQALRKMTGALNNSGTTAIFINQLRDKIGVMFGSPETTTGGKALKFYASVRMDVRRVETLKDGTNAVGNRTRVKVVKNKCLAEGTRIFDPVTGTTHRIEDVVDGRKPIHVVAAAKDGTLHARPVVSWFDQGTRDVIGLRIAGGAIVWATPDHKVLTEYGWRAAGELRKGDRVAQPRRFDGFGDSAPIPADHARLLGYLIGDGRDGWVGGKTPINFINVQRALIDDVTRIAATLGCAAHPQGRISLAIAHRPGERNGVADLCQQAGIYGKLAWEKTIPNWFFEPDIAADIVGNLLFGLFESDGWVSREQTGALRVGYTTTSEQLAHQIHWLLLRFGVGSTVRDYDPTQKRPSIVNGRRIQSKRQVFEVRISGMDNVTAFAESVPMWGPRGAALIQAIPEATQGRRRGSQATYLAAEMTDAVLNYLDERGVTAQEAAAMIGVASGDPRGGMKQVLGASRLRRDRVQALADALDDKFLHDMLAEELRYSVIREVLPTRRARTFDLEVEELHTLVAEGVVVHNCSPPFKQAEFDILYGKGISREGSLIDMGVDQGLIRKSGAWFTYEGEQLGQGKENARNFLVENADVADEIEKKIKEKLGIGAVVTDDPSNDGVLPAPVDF

[1] = biological target: Glucose-6-phosphate 1-dehydrogenase (Homo sapiens, UniProt P11413); experiment: human G6PD enzyme inhibitors, dose response, selectivity assay for P. falciparum G6PD inhibitor project, biochemical, fluorescence (AID 504792); format: functional
[2] = biological target: T2, Replicative DNA helicase DnaB (Mycobacterium tuberculosis, UniProt P9WMR3); experiment: DnaB intein splicing inhibitors, dose response, biochemical, cell-free fluorescence (AID 449749); format: functional
T2 sequence (P9WMR3 whole entry): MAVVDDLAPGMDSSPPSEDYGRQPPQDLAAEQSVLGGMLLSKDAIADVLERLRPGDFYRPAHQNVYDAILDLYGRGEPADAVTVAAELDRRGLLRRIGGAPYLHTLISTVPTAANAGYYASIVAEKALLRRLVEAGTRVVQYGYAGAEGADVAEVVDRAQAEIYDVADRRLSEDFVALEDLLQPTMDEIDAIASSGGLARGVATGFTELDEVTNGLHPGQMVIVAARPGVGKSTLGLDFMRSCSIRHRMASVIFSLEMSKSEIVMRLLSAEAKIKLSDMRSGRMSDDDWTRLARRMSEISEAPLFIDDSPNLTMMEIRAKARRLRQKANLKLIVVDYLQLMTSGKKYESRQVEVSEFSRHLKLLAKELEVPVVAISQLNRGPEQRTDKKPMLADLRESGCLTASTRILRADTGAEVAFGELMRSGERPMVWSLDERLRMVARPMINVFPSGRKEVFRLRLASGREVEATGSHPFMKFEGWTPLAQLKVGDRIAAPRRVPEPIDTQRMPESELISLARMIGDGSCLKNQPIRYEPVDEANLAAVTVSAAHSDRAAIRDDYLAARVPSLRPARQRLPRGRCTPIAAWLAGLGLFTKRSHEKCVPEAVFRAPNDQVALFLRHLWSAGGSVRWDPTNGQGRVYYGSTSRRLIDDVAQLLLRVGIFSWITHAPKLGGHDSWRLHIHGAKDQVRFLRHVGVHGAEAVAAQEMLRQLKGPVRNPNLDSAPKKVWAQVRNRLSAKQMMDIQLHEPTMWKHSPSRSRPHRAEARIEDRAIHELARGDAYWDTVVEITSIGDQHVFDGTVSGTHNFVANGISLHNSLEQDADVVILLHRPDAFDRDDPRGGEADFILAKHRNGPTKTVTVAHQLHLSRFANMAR

CAAX prenyl protease 2 [3] = biological target: T3, CAAX prenyl protease 2 (Homo sapiens, UniProt Q9Y256); experiment: human Rce1 protease inhibitors, dose response, biochemical, yeast membranes, quenched-peptide fluorescence, cherry-pick (AID 588849)
T3 sequence (Q9Y256 whole entry): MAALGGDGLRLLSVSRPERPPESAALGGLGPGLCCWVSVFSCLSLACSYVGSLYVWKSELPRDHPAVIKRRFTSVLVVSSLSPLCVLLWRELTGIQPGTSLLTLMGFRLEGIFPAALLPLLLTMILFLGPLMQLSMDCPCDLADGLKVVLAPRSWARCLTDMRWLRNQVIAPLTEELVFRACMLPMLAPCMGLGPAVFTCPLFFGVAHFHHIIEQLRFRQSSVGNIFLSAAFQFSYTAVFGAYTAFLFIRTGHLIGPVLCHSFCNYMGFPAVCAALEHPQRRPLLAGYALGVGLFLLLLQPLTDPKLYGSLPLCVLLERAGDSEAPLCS

CAAX prenyl protease 1 = CAAX prenyl protease 1 (Saccharomyces cerevisiae S288c, UniProt P47154); experiment: Ste24 protease inhibitors, dose response, biochemical, S. cerevisiae, plate reader, cherry-pick (AID 488815)
CAAX prenyl protease 2 [4] = biological target: T4, CAAX prenyl protease 2 (Saccharomyces cerevisiae S288c, UniProt Q03530); format: biochemical
T4 sequence (Q03530 whole entry): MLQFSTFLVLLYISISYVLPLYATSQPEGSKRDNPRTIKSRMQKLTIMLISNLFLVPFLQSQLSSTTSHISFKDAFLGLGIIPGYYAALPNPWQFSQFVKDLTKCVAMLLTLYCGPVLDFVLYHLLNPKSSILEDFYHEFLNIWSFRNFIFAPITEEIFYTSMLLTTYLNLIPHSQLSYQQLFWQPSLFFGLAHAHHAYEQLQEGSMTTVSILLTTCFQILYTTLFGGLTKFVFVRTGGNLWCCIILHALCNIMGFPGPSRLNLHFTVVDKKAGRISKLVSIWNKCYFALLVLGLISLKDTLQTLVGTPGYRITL

Trypsin = Trypsin (Sus scrofa, UniProt P00761); experiment: porcine trypsin inhibitors, dose response, selectivity assay for Rce1 protease inhibitor project, biochemical, quenched peptide fluorescence, cherry-pick (AID 488789)
[5] = cytotoxicity in HEK-293T NF-kB-Luc cells, dose response, cytotoxicity control for B/T-cell NF-kB inhibitor project, cell-based, uHTS hits (AID 489019); format: functional;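 further: IC50 reflects cytotoxicity as loss of cell viability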
Jurkat = experiment: antigen receptor-induced NF-kB inhibitors, dose response, Jurkat, luciferase reporter, luminescence, B- and T-cell (AID 489004); format: functional, cell-based; conditions: Homo sapiens;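 further: NF-kB luciferase reporter Jurkat cells stimulated with PMA plus ionomycin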
INS1 = experiment: beta cell apoptosis inhibitors, cytokine rescue, dose response, luminescence, retest (AID 449756); format: functional, cell-based; conditions: Rattus norvegicus;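 further: cell death triggered by IL-1 beta plus TNF-alpha plus IFN-gamma mixture; protective hits raise ATP signal compared with cytokine alone wells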
[6] = biological target: T5, Short transient receptor potential channel 4 (Mus musculus, UniProt Q9QUQ5); experiment: mouse TRPC4 channel inhibitors, dose response, cell-based, HEK293 TRPC4/mu-opioid, Fluo-4 calcium (AID 434942); format: functional;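 further: potency of inhibitors blocking the TRPC4 calcium response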
T5 sequence (Q9QUQ5 whole entry): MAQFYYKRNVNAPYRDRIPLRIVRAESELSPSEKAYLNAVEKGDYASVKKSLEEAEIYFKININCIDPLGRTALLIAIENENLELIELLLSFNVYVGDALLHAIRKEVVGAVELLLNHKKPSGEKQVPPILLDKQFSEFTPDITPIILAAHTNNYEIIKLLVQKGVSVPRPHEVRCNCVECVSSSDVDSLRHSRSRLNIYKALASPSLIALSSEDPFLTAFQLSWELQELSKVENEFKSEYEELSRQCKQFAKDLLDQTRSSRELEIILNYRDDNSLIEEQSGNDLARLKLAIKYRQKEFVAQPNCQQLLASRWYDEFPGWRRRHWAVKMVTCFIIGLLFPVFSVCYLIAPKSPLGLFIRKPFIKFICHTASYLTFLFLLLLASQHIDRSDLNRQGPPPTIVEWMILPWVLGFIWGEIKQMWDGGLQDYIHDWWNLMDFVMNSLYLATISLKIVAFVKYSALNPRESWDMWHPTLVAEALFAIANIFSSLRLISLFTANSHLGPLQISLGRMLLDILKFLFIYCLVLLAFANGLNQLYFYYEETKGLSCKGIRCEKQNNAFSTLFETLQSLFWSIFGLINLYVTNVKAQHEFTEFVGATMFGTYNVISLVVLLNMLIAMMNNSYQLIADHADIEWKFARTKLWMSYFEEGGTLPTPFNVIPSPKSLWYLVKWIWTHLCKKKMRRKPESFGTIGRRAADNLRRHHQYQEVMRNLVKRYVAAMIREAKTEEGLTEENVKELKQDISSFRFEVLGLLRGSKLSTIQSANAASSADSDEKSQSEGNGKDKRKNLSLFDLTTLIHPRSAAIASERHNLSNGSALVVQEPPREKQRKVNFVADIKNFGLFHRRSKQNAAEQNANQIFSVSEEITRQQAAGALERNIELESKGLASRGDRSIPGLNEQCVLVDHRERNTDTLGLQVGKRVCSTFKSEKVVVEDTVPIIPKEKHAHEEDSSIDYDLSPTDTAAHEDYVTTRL

[7] = inhibitors of intracellular T. cruzi replication, confirmation, NIH3T3 host cells, beta-gal luminescence (AID 2044); format: functional, cell-based;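 further: intracellular parasites grown in NIH/3T3 mouse fibroblasts as host cells; luminescent beta-galactosidase reporter signal from transgenic T. cruzi replicating inside host cells; inhibitors lower the luminescence signal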
[8] = cytotoxicity toward NIH3T3 fibroblasts, dose response, counter-screen, cell-based, ATP luminescence, mouse fibroblasts (AID 2010); format: functional;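 further: cells exposed to compound for about 90 hours before reading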
[9] = Shn3 3'UTR reporter inhibitors, dose response, cell-based, Clone20 osteoblasts, firefly luciferase, cherry-picked (AID 624132); format: functional;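 further: firefly luciferase luminescence from reporter carrying the Shn3 3'UTR in osteoblasts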
[10] = biological target: Luciferin 4-monooxygenase (Photinus pyralis, UniProt P08659); experiment: firefly luciferase enzyme inhibitors, dose response, biochemical, luminescence (AID 1891)
[11] = MC4R antagonists, dose response, counter-screen for LGR2 antagonist project, cell-based, plate reader, cherry pick (AID 743444); format: functional;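 further: transfected HEK 293 cells stimulated with alpha-MSH peptide; potency of inhibitors of the alpha-MSH evoked signal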
[12] = Luminescence Cell-Based Dose Confirmation HTS to Identify Inhibitors of Platelet Dense Granule Release. [Related pubchem assays: 1663 (Primary HTS), 1678 (Summary of Project)]; format: functional
[13] = HepG2 cell cytotoxicity, dose response, cytotoxicity control for Shn3 inhibitor project, CellTiter-Glo, cherry-picked (AID 624134); format: functional, cell-based
[14] = A549 cell cytotoxicity, dose response, cytotoxicity control, plate reader, cherry-pick, antagonist series (AID 743412); format: functional, cell-based
[15] = LGR2 antagonists, dose response, cell-based, HEK293, CRE-luciferase reporter, cherry pick, set 2 (AID 743343); format: functional;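 further: transfected cells were stimulated with diluted bursicon conditioned medium after compound addition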
[16] = biological target: Heat shock protein HSP 90-alpha (Homo sapiens, UniProt P07900); format: functional, organism-based
[17] = HEK293 cell cytotoxicity, dose response, cytotoxicity control, plate reader, cherry-picked samples (AID 743446); format: functional, cell-based
[18] = HepG2 cell cytotoxicity, dose response, cytotoxicity control, plate reader, cherry-pick, antagonist series (AID 743416); format: functional, cell-based
[19] = control 3'UTR Renilla luciferase suppression, dose response, counter-screen for Shn3 inhibitor project, cell-based, Clone20-Shn3RL, cherry-picked (AID 624133); format: functional

Chain of Trypsin (P00761 whole entry): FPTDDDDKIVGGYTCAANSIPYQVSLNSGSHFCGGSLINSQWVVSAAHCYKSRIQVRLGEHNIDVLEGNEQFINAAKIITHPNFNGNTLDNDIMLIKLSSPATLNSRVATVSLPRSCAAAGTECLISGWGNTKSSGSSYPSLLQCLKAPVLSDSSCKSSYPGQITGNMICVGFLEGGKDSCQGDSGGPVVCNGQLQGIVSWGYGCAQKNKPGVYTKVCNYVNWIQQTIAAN
Chain of CAAX prenyl protease 1 (P47154 whole entry): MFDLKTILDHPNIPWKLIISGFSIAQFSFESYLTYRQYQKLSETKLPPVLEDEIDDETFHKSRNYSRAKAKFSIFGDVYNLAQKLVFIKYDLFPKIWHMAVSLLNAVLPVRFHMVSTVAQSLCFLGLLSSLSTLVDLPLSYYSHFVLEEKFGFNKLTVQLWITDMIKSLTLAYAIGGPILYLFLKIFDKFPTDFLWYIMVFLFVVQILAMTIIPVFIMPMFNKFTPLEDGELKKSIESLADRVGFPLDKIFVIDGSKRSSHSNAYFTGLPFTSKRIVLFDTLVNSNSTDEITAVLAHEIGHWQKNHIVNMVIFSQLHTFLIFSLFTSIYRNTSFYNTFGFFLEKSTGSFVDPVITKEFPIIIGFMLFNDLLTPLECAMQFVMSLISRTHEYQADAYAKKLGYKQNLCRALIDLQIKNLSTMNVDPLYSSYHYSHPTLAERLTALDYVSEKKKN
Chain of Glucose-6-phosphate 1-dehydrogenase (P11413 whole entry): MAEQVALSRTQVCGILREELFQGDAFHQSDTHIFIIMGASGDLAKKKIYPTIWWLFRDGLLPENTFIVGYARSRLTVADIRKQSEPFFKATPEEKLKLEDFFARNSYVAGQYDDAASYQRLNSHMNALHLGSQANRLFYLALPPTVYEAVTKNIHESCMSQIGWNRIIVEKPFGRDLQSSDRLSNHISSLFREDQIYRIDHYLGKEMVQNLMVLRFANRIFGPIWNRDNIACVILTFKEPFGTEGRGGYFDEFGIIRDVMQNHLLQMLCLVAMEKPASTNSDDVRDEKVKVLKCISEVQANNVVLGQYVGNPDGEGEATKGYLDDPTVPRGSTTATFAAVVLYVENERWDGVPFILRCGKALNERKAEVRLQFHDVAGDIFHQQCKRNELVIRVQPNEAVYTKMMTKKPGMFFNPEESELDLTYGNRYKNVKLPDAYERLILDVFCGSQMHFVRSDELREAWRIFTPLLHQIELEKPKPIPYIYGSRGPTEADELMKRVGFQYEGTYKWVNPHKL
Chain of Luciferin 4-monooxygenase (P08659 whole entry): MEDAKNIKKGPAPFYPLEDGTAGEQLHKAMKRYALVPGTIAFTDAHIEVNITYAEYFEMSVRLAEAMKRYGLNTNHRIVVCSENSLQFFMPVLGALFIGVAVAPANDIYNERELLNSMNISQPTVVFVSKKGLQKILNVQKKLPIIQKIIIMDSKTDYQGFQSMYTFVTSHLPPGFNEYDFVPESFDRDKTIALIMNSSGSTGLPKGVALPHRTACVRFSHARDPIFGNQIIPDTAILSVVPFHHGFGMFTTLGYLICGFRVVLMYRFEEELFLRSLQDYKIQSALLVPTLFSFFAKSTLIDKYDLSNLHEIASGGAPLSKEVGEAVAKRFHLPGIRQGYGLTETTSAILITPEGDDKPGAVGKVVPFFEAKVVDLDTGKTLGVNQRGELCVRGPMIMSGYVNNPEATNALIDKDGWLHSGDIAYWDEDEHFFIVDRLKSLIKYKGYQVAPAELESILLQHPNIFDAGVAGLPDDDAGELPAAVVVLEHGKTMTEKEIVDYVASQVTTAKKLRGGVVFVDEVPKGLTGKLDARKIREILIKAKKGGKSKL

Cc1ccc(S(=O)(=O)N(C(=O)c2ccncc2)c2ccc(OC(=O)c3ccncc3)c3ccccc23)cc1
EC50 (Protein RecA): 0.315 µM (active) | IC50 [1]: > 80 µM (inactive) | AC50 [2]: 1.51 µM (active)

C[n+]1ccc(-c2ccccc2)c2ccccc21
AC50 (CAAX prenyl protease 2 [3]): 5.8 µM (active) | AC50 (CAAX prenyl protease 1): 2.18 µM (active) | AC50 (CAAX prenyl protease 2 [4]): 54.7 µM (active) | AC50 (Trypsin): 23.1 µM (active)

CCCCC[n+]1cccc2c3ccccc3ccc21
IC50 [5]: > 80 µM (inactive) | AC50 (CAAX prenyl protease 2 [3]): 7.74 µM (active) | IC50 (Jurkat): > 80 µM (inactive) | AC50 (CAAX prenyl protease 1): 4.72 µM (active) | AC50 (CAAX prenyl protease 2 [4]): > 100 µM (inactive) | AC50 (INS1): 4.56 µM (active) | AC50 (Trypsin): 8.59 µM (active) | EC50 [6]: 3.35 µM (active) | EC50 [7]: 0.466 µM (active) | EC50 [8]: > 30 µM (not active)

COc1ccc(-c2nc(-c3ccccn3)no2)cc1
AC50 [9]: 1.92 µM (active) | EC50 [10]: 0.548 µM (active) | AC50 [11]: 0.504 µM (active) | IC50 [5]: > 80 µM (inactive) | EC50 [12]: 2.15 µM (active) | IC50 (Jurkat): 0.88 µM (active) | AC50 (INS1): 3.81 µM (active) | AC50 [13]: 7.01 µM (active) | AC50 [14]: 3.8 µM (active) | AC50 [15]: 0.415 µM (active) | AC50 [16]: 20.4 µM (active) | AC50 [17]: 3.26 µM (active) | AC50 [18]: 3.7 µM (active) | AC50 [19]: 26.9 µM (active)

Reference: ChEMBL document CHEMBL1201862, “PubChem BioAssay data set” (2004)
